PubChem BioAssay AID248 (DTP/NCI, 2004)
Several values for one entry are separate records, joined by “and”; a condition that tells them apart may be missing. Equal entries are not always repeated. Inconclusive results and toxic doses are left out. No stated cut-off is given here; in the data, active means T/C of 150% or more; inactive means T/C below 125%.

Test system: L1210 leukemia ip in BDF1 mice, survival T/C
Assay: NCI In Vivo Anticancer Drug Screen. Data for tumor model L1210 Leukemia (intraperitoneal) in B6D2F1 (BDF1) mice
Details: endpoint: mean survival time, higher = longer survival
Method in brief: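 Each compound was tested against a transplantable tumor grown in mice. The endpoint was survival, with treated animals benchmarked against vehicle controls as a simple ratio.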

[1] = dose: 75.0 mg/kg/injection, schedule: Q01DX001 (ip), vehicle: other
[2] = dose: 150.0 mg/kg/injection, schedule: Q01DX001 (ip), vehicle: other
[3] = dose: 100.0 mg/kg/injection, schedule: Q01DX001 (ip), vehicle: Klucel (hydroxypropylcellulose) (HPC)
[4] = dose: 100.0 mg/kg/injection, schedule: Q04DX003 (ip), vehicle: saline with Tween-80
[5] = dose: 200.0 mg/kg/injection, schedule: Q04DX003 (ip), vehicle: saline with Tween-80
[6] = dose: 50.0 mg/kg/injection, schedule: Q01DX009 (ip), vehicle: saline with Tween-80
[7] = dose: 100.0 mg/kg/injection, schedule: Q01DX009 (ip), vehicle: saline with Tween-80
[8] = dose: 200.0 mg/kg/injection, schedule: Q01DX009 (ip), vehicle: saline with Tween-80
[9] = dose: 100.0 mg/kg/injection, schedule: Q04DX003 (ip), vehicle: Klucel (hydroxypropylcellulose) (HPC)
[10] = dose: 200.0 mg/kg/injection, schedule: Q04DX003 (ip), vehicle: Klucel (hydroxypropylcellulose) (HPC)
[11] = dose: 400.0 mg/kg/injection, schedule: Q04DX003 (ip), vehicle: Klucel (hydroxypropylcellulose) (HPC)
[12] = dose: 25.0 mg/kg/injection, schedule: Q01DX009 (ip), vehicle: saline with Tween-80
[13] = dose: 100.0 mg/kg/injection, schedule: Q01DX009 (ip), vehicle: Klucel (hydroxypropylcellulose) (HPC)
[14] = dose: 200.0 mg/kg/injection, schedule: Q01DX009 (ip), vehicle: Klucel (hydroxypropylcellulose) (HPC)
[15] = dose: 400.0 mg/kg/injection, schedule: Q01DX009 (ip), vehicle: Klucel (hydroxypropylcellulose) (HPC)

Measured: T/C

CCCCCCOc1ccc(N=[N+]([O-])c2ccc(OCCCCCC)cc2)cc1
inactive: [1] 91 % of control | [2] 91 % of control | dose: 300.0 mg/kg/injection, schedule: Q01DX001 (ip), vehicle: other 87 % of control

CCC1(CCCCBr)OCCO1
inactive: [3] 103 % of control | dose: 200.0 mg/kg/injection, schedule: Q01DX001 (ip), vehicle: Klucel (hydroxypropylcellulose) (HPC) 100 % of control | dose: 400.0 mg/kg/injection, schedule: Q01DX001 (ip), vehicle: Klucel (hydroxypropylcellulose) (HPC) 93 % of control

NC(=S)N/N=C/c1cc2c3c(c1)CCCN3CCC2
inactive: [4] 109 % of control | [5] 103 % of control | dose: 400.0 mg/kg/injection, schedule: Q04DX003 (ip), vehicle: saline with Tween-80 103 % of control

NNC(=O)c1n[nH]c(=S)[nH]c1=O
inactive: dose: 100.0 mg/kg/injection, schedule: Q01DX001 (ip), vehicle: carboxymethylcellulose (CMC) 98 % of control | dose: 200.0 mg/kg/injection, schedule: Q01DX001 (ip), vehicle: carboxymethylcellulose (CMC) 103 % of control | dose: 400.0 mg/kg/injection, schedule: Q01DX001 (ip), vehicle: carboxymethylcellulose (CMC) 95 % of control

O/N=C\c1ccc(/C=N/O)cc1
inactive: [6] 97 % of control | [7] 93 % of control | [8] 97 % of control

O=[N+]([O-])c1ccc(N=Cc2ccccc2)cc1
inactive: [9] 91 % of control | [10] 96 % of control | [11] 98 % of control

N#C/C(=C\c1ccco1)c1ccc([N+](=O)[O-])cc1
inactive: dose: 6.25 mg/kg/injection, schedule: Q01DX009 (ip), vehicle: saline with Tween-80 90 % of control | dose: 12.5 mg/kg/injection, schedule: Q01DX009 (ip), vehicle: saline with Tween-80 90 % of control | [12] 95 % of control

Cc1ccc(NC(=O)Oc2ccccc2C(N)=O)cc1NC(=O)Oc1ccccc1C(N)=O
inactive: [13] 93 % of control | [14] 94 % of control | [15] 89 % of control

O=C(CNC(=O)Nc1ccc(Cl)c(Cl)c1)N/N=C/C=C/c1ccccc1
inactive: [6] 96 % of control | [7] 96 % of control | [8] 93 % of control

CC(=O)NC(=S)Nc1ccccc1
inactive: dose: 12.5 mg/kg/injection, schedule: Q04DX003 (ip), vehicle: Klucel (hydroxypropylcellulose) (HPC) 95 % of control | dose: 25.0 mg/kg/injection, schedule: Q04DX003 (ip), vehicle: Klucel (hydroxypropylcellulose) (HPC) 117 % of control | dose: 50.0 mg/kg/injection, schedule: Q04DX003 (ip), vehicle: Klucel (hydroxypropylcellulose) (HPC) 101 % of control

Cc1ccc(NC(=O)Oc2ccc(-c3ccccc3)cc2)cc1
inactive: [13] 107 % of control | [14] 100 % of control | [15] 92 % of control

CC(=O)OCc1c(C)[nH]c2ccc(N(C)C)cc2c1=O
inactive: [7] 102 % of control | [8] 112 % of control

COc1cc2c(cc1NC1=NCCO1)OCO2
inactive: dose: 75.0 mg/kg/injection, schedule: Q04DX003 (ip), vehicle: Klucel (hydroxypropylcellulose) (HPC) 101 % of control | dose: 150.0 mg/kg/injection, schedule: Q04DX003 (ip), vehicle: Klucel (hydroxypropylcellulose) (HPC) 93 % of control | dose: 300.0 mg/kg/injection, schedule: Q04DX003 (ip), vehicle: Klucel (hydroxypropylcellulose) (HPC) 103 % of control

COC(=O)/C=C/CBr
inactive: dose: 0.2 mg/kg/injection, schedule: Q01DX015 (ip), vehicle: carboxymethylcellulose (CMC) 91 % of control | dose: 4.0 mg/kg/injection, schedule: Q01DX015 (ip), vehicle: carboxymethylcellulose (CMC) 109 % of control | dose: 5.0 mg/kg/injection, schedule: Q01DX001 (ip), vehicle: carboxymethylcellulose (CMC) 95 % of control | dose: 8.0 mg/kg/injection, schedule: Q01DX015 (ip), vehicle: carboxymethylcellulose (CMC) 91 % of control | dose: 10.0 mg/kg/injection, schedule: Q01DX001 (ip), vehicle: carboxymethylcellulose (CMC) 93 % of control | dose: 16.0 mg/kg/injection, schedule: Q01DX015 (ip), vehicle: carboxymethylcellulose (CMC) 100 % of control and 102 % of control | dose: 32.0 mg/kg/injection, schedule: Q01DX015 (ip), vehicle: carboxymethylcellulose (CMC) 100 % of control

C=C(C)CSC#N
inactive: [12] 101 % of control | [6] 96 % of control | [7] 101 % of control

CC1(C)Cc2cccc(OC(N)=O)c2O1
inactive: dose: 1.56 mg/kg/injection, schedule: Q04DX003 (ip), vehicle: Klucel (hydroxypropylcellulose) (HPC) 94 % of control | dose: 3.13 mg/kg/injection, schedule: Q04DX003 (ip), vehicle: Klucel (hydroxypropylcellulose) (HPC) 103 % of control | dose: 6.25 mg/kg/injection, schedule: Q04DX003 (ip), vehicle: Klucel (hydroxypropylcellulose) (HPC) 104 % of control

COc1ccc(NC(=O)NCc2ccccc2Cl)c(OC)c1
inactive: [13] 102 % of control | [14] 96 % of control | [15] 98 % of control

CCC(C)(N)C(=O)O (stereo not drawn)
inactive: dose: 100.0 mg/kg/injection, schedule: Q01DX001 (ip), vehicle: saline 102 % of control | dose: 200.0 mg/kg/injection, schedule: Q01DX001 (ip), vehicle: saline 106 % of control | dose: 400.0 mg/kg/injection, schedule: Q01DX001 (ip), vehicle: saline 102 % of control

O=C(N/N=C\c1ccc2c(c1)OCO2)N/N=C/c1ccc2c(c1)OCO2
inactive: [9] 97 % of control | [10] 100 % of control | [11] 97 % of control

O=COCC(O)COC=O
inactive: dose: 12.5 mg/kg/injection, schedule: Q01DX009 (ip), vehicle: saline 101 % of control | dose: 25.0 mg/kg/injection, schedule: Q01DX009 (ip), vehicle: saline 104 % of control | dose: 50.0 mg/kg/injection, schedule: Q01DX009 (ip), vehicle: saline 87 % of control | dose: 100.0 mg/kg/injection, schedule: Q01DX009 (ip), vehicle: saline 101 % of control | dose: 100.0 mg/kg/injection, schedule: Q04DX003 (ip), vehicle: saline 95 % of control | dose: 200.0 mg/kg/injection, schedule: Q04DX003 (ip), vehicle: saline 90 % of control | dose: 400.0 mg/kg/injection, schedule: Q04DX003 (ip), vehicle: saline 97 % of control

OCCCC1CC2C=CC1C2 (stereo not drawn)
inactive: [1] 102 % of control | [2] 94 % of control

CN(C)/N=N/c1ncn(C2CCCO2)c1C(N)=O (stereo not drawn)
inactive: dose: 200.0 mg/kg/injection, schedule: Q01DX005 (ip), vehicle: saline 115 % of control

COC(=O)C1OCOC2C(CO)OCOC12 (stereo not drawn)
inactive: dose: 100.0 mg/kg/injection, schedule: Q04DX002 (ip), vehicle: saline 91 % of control | [4] 91 % of control | dose: 200.0 mg/kg/injection, schedule: Q04DX002 (ip), vehicle: saline 117 % of control | [5] 86 % of control | dose: 400.0 mg/kg/injection, schedule: Q04DX002 (ip), vehicle: saline 106 % of control

OC1(c2ccccc2)CCN(Cc2ccccc2)CC1
inactive: dose: 25.0 mg/kg/injection, schedule: Q01DX001 (ip), vehicle: Klucel (hydroxypropylcellulose) (HPC) 106 % of control | dose: 50.0 mg/kg/injection, schedule: Q01DX001 (ip), vehicle: Klucel (hydroxypropylcellulose) (HPC) 118 % of control | [3] 93 % of control and 107 % of control
